Experimental data from ChEMBL document CHEMBL2010671, “Structure aided design of chimeric antibiotics” (Bioorg Med Chem Lett, 2012).
pIC50: −log10 of the molar value. Converted amounts (≈) assume the structure as drawn.

Tests used:
Escherichia coli [1] = assay: Antimicrobial activity against ciprofloxacin-, SXT-sensitive Escherichia coli ATCC 25922; format: functional
Staphylococcus aureus = assay: Antimicrobial activity against ciprofloxacin-, SXT-sensitive Staphylococcus aureus ATCC 25923; format: functional
Escherichia coli [2] = assay: Antimicrobial activity against ciprofloxacin-, SXT-resistant Escherichia coli; format: functional
[3] = Inhibition of DNA supercoiling activity of Escherichia coli DNA gyrase after 1 hr by agarose gel electrophoresis; conditions: for pIC50: read-out: IC50
Klebsiella pneumoniae = assay: Antimicrobial activity against ciprofloxacin-sensitive, SXT-resistant Klebsiella pneumoniae ATCC 700603; format: functional
[4] = Inhibition of DNA decatenation activity of Escherichia coli DNA topoisomerase 4 after 1 hr by agarose gel electrophoresis; conditions: for pIC50: read-out: IC50
Pseudomonas aeruginosa = assay: Antimicrobial activity against ciprofloxacin-sensitive, SXT-resistant Pseudomonas aeruginosa ATCC 10145; format: functional
[5] = system: Staphylococcus epidermidis; assay: Antimicrobial activity against ciprofloxacin-sensitive, SXT-resistant Staphylococcus epidermidis NRS60; format: functional
[6] = Cytotoxicity against human HEK293 cells after 48 hrs by MTT assay; format: cell-based
HEK293 = assay: Cytotoxicity against human HEK293 cells at 100 uM after 48 hrs by MTT assay; format: cell-based; conditions: hek293, 48 h
[7] = Cytotoxicity against human HepG2 cells after 48 hrs by MTT assay; format: cell-based
HepG2 = assay: Cytotoxicity against human HepG2 cells at 100 uM after 48 hrs by MTT assay; format: cell-based; conditions: hepg2, 48 h
Dihydrofolate reductase = target: T1, Dihydrofolate reductase (Homo sapiens, UniProt P00374); assay: Inhibition of DHFR using dihydrofolate as substrate following 3 mins substrate preincubation measured after 3 mins by spectrophotometric analysis
T1 sequence (P00374 whole entry): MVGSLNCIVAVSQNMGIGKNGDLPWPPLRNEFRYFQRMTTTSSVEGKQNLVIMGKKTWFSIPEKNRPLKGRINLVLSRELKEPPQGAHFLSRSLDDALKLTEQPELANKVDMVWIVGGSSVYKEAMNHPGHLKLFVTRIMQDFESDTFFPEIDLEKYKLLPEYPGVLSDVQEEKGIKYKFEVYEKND

| Compound | MIC (Escherichia coli [1]) | MIC (Staphylococcus aureus) | MIC (Escherichia coli [2]) | pIC50 [3] | MIC (Klebsiella pneumoniae) | pIC50 [4] | MIC (Pseudomonas aeruginosa) | MIC [5] | CC50 at 48 h [6] | Activity (HEK293) | CC50 at 48 h [7] | Activity (HepG2) | IC50 [3] | IC50 [4] | pIC50 (Dihydrofolate reductase) |
| --- | --- | --- | --- | --- | --- | --- | --- | --- | --- | --- | --- | --- | --- | --- | --- |
| O=C(O)c1cn(C2CC2)c2cc(N3CCNCC3)c(F)cc2c1=O [CIPROFLOXACIN] | ≤ 0.03 µg/mL | 0.5 µg/mL (≈ 1.51 µM) | > 64 µg/mL | 6.01 | 0.125 µg/mL (≈ 0.377 µM) | 6.41 | ≤ 0.03 µg/mL | 0.06 µg/mL (≈ 0.181 µM) | – | – | – | – | – | – | – |
| Nc1ncc(Cn2cc(CN3CCN(c4nc5c(cc4F)c(=O)c(C(=O)O)cn5C4CC4)CC3)nn2)c(N)n1 | 4 µg/mL (≈ 7.47 µM) | 64 µg/mL (≈ 120 µM) | > 64 µg/mL | 3.80 | > 64 µg/mL | 4.97 | 64 µg/mL (≈ 120 µM) | 8 µg/mL (≈ 14.9 µM) | – | – | – | – | – | – | – |
| C#CCN1CCN(c2nc3c(cc2F)c(=O)c(C(=O)O)cn3C2CC2)CC1 | 0.25 µg/mL (≈ 0.675 µM) | 0.25 µg/mL (≈ 0.675 µM) | > 64 µg/mL | 5.00 | 8 µg/mL (≈ 21.6 µM) | 5.36 | 8 µg/mL (≈ 21.6 µM) | 0.5 µg/mL (≈ 1.35 µM) | – | – | – | – | – | – | – |
| C#CCNc1nc2c(cc1F)c(=O)c(C(=O)OCC)cn2C1CC1 | – | – | – | – | – | – | – | – | 80 µM | Toxic | 80 µM | Toxic | – | – | – |
| COc1cc(Cc2cnc(Nc3nc4c(cc3F)c(=O)c(C(=O)O)cn4C3CC3)nc2N)cc2c1OCCN2 | > 64 µg/mL | > 64 µg/mL | > 64 µg/mL | – | > 64 µg/mL | – | > 64 µg/mL | > 64 µg/mL | – | – | – | – | – | – | – |
| Nc1ncc(CNc2nc3c(cc2F)c(=O)c(C(=O)O)cn3C2CC2)c(N)n1 | > 64 µg/mL | > 64 µg/mL | – | – | – | – | – | – | – | – | – | – | – | – | – |
| COc1cc(Cc2cnc(N)nc2Nc2nc3c(cc2F)c(=O)c(C(=O)O)cn3C2CC2)cc2c1OCCN2 | > 64 µg/mL | > 64 µg/mL | > 64 µg/mL | – | > 64 µg/mL | – | > 64 µg/mL | > 64 µg/mL | – | – | – | – | – | – | – |
| CCOC(=O)c1cn(C2CC2)c2nc(NCc3cn(Cc4cnc(N)nc4N)nn3)c(F)cc2c1=O | > 64 µg/mL | > 64 µg/mL | > 64 µg/mL | – | > 64 µg/mL | – | > 64 µg/mL | > 64 µg/mL | – | – | – | – | Not Active | Not Active | – |
| Nc1ncc(COCc2cn(-c3nc4c(cc3F)c(=O)c(C(=O)O)cn4C3CC3)nn2)c(N)n1 | 0.5 µg/mL (≈ 1.07 µM) | 4 µg/mL (≈ 8.56 µM) | > 64 µg/mL | 4.32 | 16 µg/mL (≈ 34.2 µM) | 5.35 | > 64 µg/mL | 4 µg/mL (≈ 8.56 µM) | – | – | – | – | – | – | < 3.60 |
| COLISTIN | 0.06 µg/mL | 1 µg/mL | > 64 µg/mL | – | < 0.03 µg/mL | – | ≤ 0.03 µg/mL | 2 µg/mL | – | – | – | – | – | – | – |
| C#CCNc1nc2c(cc1F)c(=O)c(C(=O)O)cn2C1CC1 | 16 µg/mL (≈ 53.1 µM) | 32 µg/mL (≈ 106 µM) | > 64 µg/mL | 3.78 | > 64 µg/mL | < 3.60 | > 64 µg/mL | 16 µg/mL (≈ 53.1 µM) | – | – | – | – | – | – | – |
| [N-]=[N+]=Nc1nc2c(cc1F)c(=O)c(C(=O)O)cn2C1CC1 | 2 µg/mL (≈ 6.92 µM) | 16 µg/mL (≈ 55.3 µM) | > 64 µg/mL | 4.77 | 64 µg/mL (≈ 221 µM) | < 3.60 | > 64 µg/mL | 4 µg/mL (≈ 13.8 µM) | – | – | – | – | – | – | – |
| COc1cc(Cc2cnc(N)nc2N)cc2c1OCCN2 | 8 µg/mL (≈ 27.8 µM) | 8 µg/mL (≈ 27.8 µM) | > 64 µg/mL | < 3.60 | 32 µg/mL (≈ 111 µM) | < 3.60 | > 64 µg/mL | > 64 µg/mL | – | – | – | – | – | – | – |
| COc1cc(Cc2cnc(N)nc2N)cc(OC)c1OC [TRIMETHOPRIM] | 0.125 µg/mL (≈ 0.431 µM) | 1 µg/mL (≈ 3.44 µM) | > 64 µg/mL | – | 2 µg/mL (≈ 6.89 µM) | – | > 64 µg/mL | > 64 µg/mL | – | – | – | – | – | – | – |
